Measured values from patent publication US20240327354A1, “GRAM-NEGATIVE BACTERIA EFFLUX PUMP INHIBITORS” (INSTITUT NATIONAL DE LA SANTÉ ET DE LA RECHERCHE MÉDICALE, priority 2021, published 2024).
Structures can show the parent of a compound that is named as a salt.

Tests used:
[1] = system: E. coli BW25113; assay: Assay 1: growth inhibition of E. coli by sub-inhibitory pyridomycin in combination with examples (resazurin reduction); format: cell-based, Escherichia coli; conditions: read-out: EC50 on E. coli with 8 μg/mL of pyridomycin, 8 μg/mL pyridomycin, 5 h, 37° C.
Procedure, shortened: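 E. coli BW25113 at OD600 0.0004–0.001 was grown in CAMHB at 37 °C. Viability was read by resazurin reduction fluorescence (Ex 530/Em 590 nm). EC50 is the concentration preventing 50% of resazurin turnover relative to untreated bacteria.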

[2] = system: A. baumannii LMG 1025 (ATCC 17978); assay: Assay 2: growth inhibition of A. baumannii by sub-inhibitory chloramphenicol in combination with examples (resazurin reduction); format: cell-based, Acinetobacter baumannii; conditions: read-out: EC90 on A. baumannii with 10 μg/mL of chloramphenicol, 10 μg/mL chloramphenicol, 5 h or 24 h, 37° C.
Excerpt: (§1) Escherichia coli BW25113 (CGSC 7636) and its derivatives E. coli ΔtolC (JW5503-1, ΔtolC732::kan, CGSC 11430), E. coli ΔacrA (JW0452-3, ΔacrA748::kan, CGSC 11843) and E. coli ΔacrB (JW0451-2, ΔacrB747::kan, CGSC 8609) were obtained from E. coli Genetic Stock Center (CGSC, New Haven, Connecticut) and originated from the Keio Collection (Baba T et al, Mol Sys Biol, 2006). Klebsiella pneumoniae (LMG 2095/ATCC 13883) and K. pneumoniae (ATCC43816), Pseudomonas aeruginosa (PAO1), Acinetobacter baumannii (LMG 1025, ATCC 17978), were obtained from ATCC or BCCM/LMG Bacteria Collection. All bacteria were grown and tested in cation-adjusted Mueller-Hinton broth (CAMHB; BD Difco) at 37° C. For conservation, log phase bacteria were frozen (−80° C.) in CAMHB supplemented with 15% glycerol.
Measurement of Growth Inhibition of A. baumannii Strains by Sub Inhibitory Concentrations of Chloramphenicol in Combination with Examples 1-137
(§2) For the evaluation of the dose dependent activity of examples 1-137, their ability to boost the antibacterial activity of sub-inhibitory concentrations chloramphenicol was determined. Briefly, A. baumannii LMG 1025 (ATCC 17978) were diluted from frozen or growing stocks to an OD600 of 0.001 in CAMHB. The bacterial suspension was then used as such (no-antibiotic control to evaluate EPI activity), or spiked with chloramphenicol at a final concentration of 10 μg/mL. Bacteria were then added to microplates carrying serial dilutions of the compounds examples 1-137, and incubated for (5 h or 24 h, 37° C.). Bacterial viability was evaluated using the resazurin reduction assay, and measured by fluorescence (POLARstar Omega, BMG Labtech: Ex: 530 nm Em: 590 nm). […] were defined as the compound concentration that prevented 90% of resazurin turnover compared to the non-treated bacteria.

[3] = system: A. baumannii LMG 1025 (ATCC 17978); assay: Assay 3: growth inhibition of A. baumannii by sub-inhibitory novobiocin in combination with examples (resazurin reduction); format: cell-based, Acinetobacter baumannii; conditions: 5 μg/mL novobiocin, 5 h or 24 h, 37° C., read-out: EC90 on A. baumannii with 5 μg/mL of novobiocin
Excerpt: as §1
Measurement of growth Inhibition of A. baumannii strains by sub Inhibitory concentrations of novobiocin In combination with examples 1-137
as §2, with “concentrations novobiocin” for “concentrations chloramphenicol”, “such (no—antibiotic” for “such (no-antibiotic”, “with novobiocin” for “with chloramphenicol”, “of 5” for “of 10”

Row | SMILES | EC50 [1] [µM] | EC90 [2] [µM] | EC90 [3] [µM]
1 | O=C(OCCc1ccccc1)c1cnc(N2CCNCC2)c(Cl)c1 [Example 30, 2-phenylethyl 5-chloro-6-piperazin-1-yl-pyridine-3-carboxylate;hydrochloride] | 5 to 100 | 100 to 500 | –
2 | COc1ccc(COC(=O)c2cnc(N3CCNCC3)c(Cl)c2)cc1 [Example 31, (4-methoxyphenyl)methyl 5-chloro-6-piperazin-1-yl-pyridine-3-carboxylate;hydrochloride] | 5 to 100 | 100 to 500 | –
3 | O=C(NCc1ccc(Cl)cc1)c1cnc(N2CCNCC2)c(Cl)c1 [Example 33, 5-chloro-N-[(4-chlorophenyl)methyl]-6-piperazin-1-yl-pyridine-3-carboxamide;hydrochloride] | 5 to 100 | 100 to 500 | –
4 | Clc1cc2ccccc2nc1N1CCNCC1 [Example 37, 3-chloro-2-piperazin-1-yl-quinoline; hydrochloride] | < 5 | 5 to 100 | –
5 | Cc1cc2ccccc2nc1N1CCNCC1 [Example 38, 3-methyl-2-piperazin-1-yl-quinoline; hydrochloride] | 5 to 100 | 100 to 500 | –
6 | N#Cc1cc2ccccc2nc1N1CCNCC1 [Example 39, 2-piperazin-1-ylquinoline-3-carbonitrile; hydrochloride] | 5 to 100 | 100 to 500 | –
7 | Clc1ccc2nc(Cl)c(N3CCNCC3)cc2c1 [Example 41, 2,6-dichloro-3-piperazin-1-yl-quinoline;hydrochloride] | 5 to 100 | 100 to 500 | –
8 | Cc1ccc2nc(Cl)c(N3CCNCC3)cc2c1 [Example 42, 2-chloro-6-methyl-3-piperazin-1-yl-quinoline;hydrochloride] | 5 to 100 | 100 to 500 | –
9 | Brc1cc2ccccc2nc1N1CCNCC1 [Example 43, 3-bromo-2-piperazin-1-yl-quinoline;hydrochloride] | < 5 | 100 to 500 | –
10 | Brc1cnc(N2CCNCC2)c2ccccc12 [Example 44, 4-bromo-1-piperazin-1-yl-isoquinoline;hydrochloride] | 100 to 500 | 5 to 100 | –
11 | Clc1cc2ccccc2nc1N1C2CCC1CNC2 [Example 45, 3-chloro-2-(3,8-diazabicyclo[3.2.1]octan-8-yl)quinoline;hydrochloride] | 100 to 500 | 100 to 500 | –
12 | Clc1nc2ccccc2nc1N1CCNCC1 [Example 46, 2-chloro-3-piperazin-1-yl-quinoxaline;hydrochloride] | < 5 | 100 to 500 | –
13 | Clc1nc2ccccc2nc1N1CC2CCC(C1)N2 [Example 48, 2-chloro-3-(3,8-diazabicyclo[3.2.1]octan-3-yl)quinoxaline;hydrochloride] | 5 to 100 | 100 to 500 | –
14 | C[C@@H]1CN(c2nc3ccccc3nc2Cl)CCN1 [Example 49, hydrochloride] | 5 to 100 | 100 to 500 | –
15 | Ic1cc2ccccc2nc1N1CCNCC1 [Example 52, 3-iodo-2-piperazin-1-yl-quinoline;hydrochloride] | < 5 | 100 to 500 | –
16 | FC(F)(F)c1ccc2nc(N3CCNCC3)c(Br)cc2c1 [Example 53, 3-bromo-2-piperazin-1-yl-6-(trifluoromethyl)quinoline; hydrochloride] | 5 to 100 | 100 to 500 | –
17 | Clc1ccc2nc(N3CCNCC3)c(Br)cc2c1 [Example 54, 3-bromo-6-chloro-2-piperazin-1-yl-quinoline; hydrochloride] | < 5 | 100 to 500 | –

Row | SMILES | EC50 [1] [µM] | EC90 [2] [µM] | EC90 [3] [µM]
18 | Cc1ccc2nc(N3CCNCC3)c(Br)cc2c1 [Example 55, 3-bromo-6-methyl-2-piperazin-1-yl-quinoline;hydrochloride] | < 5 | 100 to 500 | –
19 | Cc1cccc2cc(Cl)c(N3CCNCC3)nc12 [Example 59, 3-chloro-8-methyl-2-piperazin-1-yl-quinoline;hydrochloride] | < 5 | 100 to 500 | –
20 | COc1nc2ccccc2nc1N1CCNCC1 [Example 82, 2-methoxy-3-piperazin-1-yl-quinoxaline; 2,2,2-trifluoroacetic acid] | 5 to 100 | 100 to 500 | –
21 | Clc1nc2ccccc2nc1N1CC2CC(C1)N2 [Example 83, 2-chloro-3-(3,6-diazabicyclo[3.1.1]heptan-3-yl)quinoxaline; trifluoromethanesulfonic acid] | 100 to 500 | 100 to 500 | –
22 | NCCc1ccccc1C#Cc1cnc(N2CCNCC2)c(Cl)c1 [Example 90, 2-[2-[2-(5-chloro-6-piperazin-1-yl-3-pyridyl)ethynyl]phenyl]ethanamine; 2,2,2-trifluoroacetic acid] | < 5 | – | 5 to 100
23 | NCCc1cccc(C#Cc2cnc(N3CCNCC3)c(Cl)c2)c1 [Example 91, 2-[3-[2-(5-chloro-6-piperazin-1-yl-3-pyridyl)ethynyl]phenyl]ethanamine; 2,2,2-trifluoroacetic acid] | < 5 | – | 5 to 100
24 | Cc1c(Cl)ccc2cc(Cl)c(N3CCNCC3)nc12 [Example 98, 3,7-dichloro-8-methyl-2-piperazin-1-yl-quinoline;hydrochloride] | < 5 | 5 to 100 | –
25 | NCCCCNc1ccc2nc(N3CCNCC3)c(Cl)cc2c1 [Example 105, N′-(3-chloro-2-piperazin-1-yl-6-quinolyl)butane-1,4-diamine;dihydrochloride] | < 5 | – | 5 to 100
26 | Clc1cc2cc(-c3ccccc3)ccc2nc1N1CCNCC1 [Example 106, 3-chloro-6-phenyl-2-piperazin-1-yl-quinoline;hydrochloride] | 5 to 100 | 5 to 100 | –
27 | NCc1ccc(-c2ccc3nc(N4CCNCC4)c(Cl)cc3c2)cc1 [Example 107, [4-(3-chloro-2-piperazin-1-yl-6-quinolyl)phenyl]methanamine;dihydrochloride] | < 5 | – | 5 to 100
28 | CN(C)Cc1cccc(-c2ccc3nc(N4CCNCC4)c(Cl)cc3c2)c1 [Example 110, 1-[3-(3-chloro-2-piperazin-1-yl-6-quinolyl)phenyl]-N,N-dimethyl-methanamine;dihydrochloride] | < 5 | – | 5 to 100
29 | NCc1ccccc1-c1ccc2nc(N3CCNCC3)c(Cl)cc2c1 [Example 111, [2-(3-chloro-2-piperazin-1-yl-6-quinolyl)phenyl]methanamine;dihydrochloride] | < 5 | – | 5 to 100
30 | C[C@H](N)c1cccc(-c2ccc3nc(N4CCNCC4)c(Cl)cc3c2)c1 [Example 112, (1S)-1-[3-(3-chloro-2-piperazin-1-yl-6-quinolyl)phenyl]ethanamine; dihydrochloride] | < 5 | – | 5 to 100
31 | NCCc1ccc(-c2ccc3nc(N4CCNCC4)c(Cl)cc3c2)cc1 [Example 116, 2-[4-(3-chloro-2-piperazin-1-yl-6-quinolyl)phenyl]ethanamine;dihydrochloride] | < 5 | – | 5 to 100
32 | Cc1c(CN)cccc1-c1ccc2nc(N3CCNCC3)c(Cl)cc2c1 [Example 117, [3-(3-chloro-2-piperazin-1-yl-6-quinolyl)-2-methyl-phenyl]methanamine;dihydrochloride] | < 5 | – | 5 to 100
33 | Clc1cc2cc(-c3cccc4c3CNC4)ccc2nc1N1CCNCC1 [Example 134, 3-chloro-6-isoindolin-4-yl-2-piperazin-1-yl-quinoline;dihydrochloride] | < 5 | 5 to 100 | –
